Results reported in BindingDB's records for doi:10.1016/j.bmc.2004.09.056 (Pfizer, 2005).

Molecular target: T1, Renin (Homo sapiens, UniProt P00797)
T1 sequence (P00797 whole entry): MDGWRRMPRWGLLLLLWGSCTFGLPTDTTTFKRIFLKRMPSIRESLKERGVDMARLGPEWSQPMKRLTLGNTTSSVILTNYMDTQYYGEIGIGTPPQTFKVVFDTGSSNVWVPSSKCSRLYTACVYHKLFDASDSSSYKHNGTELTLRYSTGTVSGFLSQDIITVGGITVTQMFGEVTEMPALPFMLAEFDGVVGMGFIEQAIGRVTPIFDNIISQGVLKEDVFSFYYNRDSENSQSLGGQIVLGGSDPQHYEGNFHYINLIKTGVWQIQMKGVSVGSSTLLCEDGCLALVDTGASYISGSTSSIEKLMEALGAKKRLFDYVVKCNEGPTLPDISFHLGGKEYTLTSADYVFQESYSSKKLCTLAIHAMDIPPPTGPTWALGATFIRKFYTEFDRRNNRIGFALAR
Assay: In Vitro Renin IC50 Determinations (Tandem GFP FRET Assay)
Details: pH 7.4; 22 °C
Description: The renin assay utilized a tandem Green Flourescent Protein (tGFP) substrate that was hydrolyzed by human rennin. The tGFP substrate contained a nine amino acid (Ile-His-Pro-Phe-His-Leu-Val-Ile-His) recognition sequence for human renin flanked by two GPF proteins (W1B and Topaz). Human rennin cleaves the leucine-valine site of the substrate linker. Once cleaved, the emission ratio changes. The change was monitored by the ratio of 530 nm (topaz) over 475 nm (W1B) with the excitation set at 432 nm and the cutoff at 515 nm. The assay used a 384 well plate format that was read using a Gemini XS Fluorometric plate reader (Molecular Devices). Compounds were screened at a starting concentration of 10 uM and used a fourfold eleven-point dilution regiment.

Structure (SMILES) | IC50 [nM]
COc1ccccc1COCCCOc1ccc([C@H]2CCNC[C@H]2NCc2ccc(-c3ccccc3)cc2)cc1 (mixture of isomers) [mixture of cis isomers] | > 10000
COc1ccccc1COCCCOc1ccc([C@H]2CCNC[C@H]2NCc2ccc3occc3c2)cc1 (mixture of isomers) [mixture of cis isomers] | 393
COc1ccc2cc(CN[C@@H]3CNCC[C@@H]3c3ccc(OCCCOCc4ccccc4OC)cc3)ccc2c1 (mixture of isomers) [(3S,4R)-N-[(6-methoxynaphthalen-2-yl)methyl]-4-(4-{3-[(2-methoxyphenyl)methoxy]propoxy}phenyl)piperidin-3-amine] | 73
COc1ccccc1COCCCOc1ccc([C@H]2CCNC[C@H]2NC(=O)c2ccc3ccccc3c2)cc1 (mixture of isomers) [mixture of cis isomers] | > 10000
COc1ccccc1COCCCOc1ccc([C@H]2CCNC[C@H]2NCc2ccc3cccnc3c2)cc1 (mixture of isomers) [mixture of cis isomers] | 175
COc1ccccc1COCCCOc1ccc([C@H]2CCNC[C@H]2NCc2ccc3ccccc3c2)cc1 [(3S,4R)-4-(4-{3-[(2-methoxyphenyl)methoxy]propoxy}phenyl)-N-(naphthalen-2-ylmethyl)piperidin-3-amine] | 61
COc1ccccc1COCCCOc1ccc([C@H]2CCNC[C@H]2NCc2ccc3c(c2)NCCC3)cc1 [mixture of cis isomers] | 255
COc1ccccc1COCCCOc1ccc([C@H]2CCNC[C@H]2NCc2ccc3[nH]ccc3c2)cc1 (mixture of isomers) [(3S,4R)-N-(1H-indol-5-ylmethyl)-4-(4-{3-[(2-methoxyphenyl)methoxy]propoxy}phenyl)piperidin-3-amine] | 2280
